Assays:
[1] = biological target: T1, IRAK4 (Homo sapiens, UniProt Q9NWZ3); test: IRAK4 MSD degradation in OCI-LY10; type: cell-based; details: OCI-LY10 cells, 24 hrs, Meso Scale Discovery
T1 construct: endogenous in cells; host or cells: OCI-LY10
T1 sequence (Q9NWZ3 1-460): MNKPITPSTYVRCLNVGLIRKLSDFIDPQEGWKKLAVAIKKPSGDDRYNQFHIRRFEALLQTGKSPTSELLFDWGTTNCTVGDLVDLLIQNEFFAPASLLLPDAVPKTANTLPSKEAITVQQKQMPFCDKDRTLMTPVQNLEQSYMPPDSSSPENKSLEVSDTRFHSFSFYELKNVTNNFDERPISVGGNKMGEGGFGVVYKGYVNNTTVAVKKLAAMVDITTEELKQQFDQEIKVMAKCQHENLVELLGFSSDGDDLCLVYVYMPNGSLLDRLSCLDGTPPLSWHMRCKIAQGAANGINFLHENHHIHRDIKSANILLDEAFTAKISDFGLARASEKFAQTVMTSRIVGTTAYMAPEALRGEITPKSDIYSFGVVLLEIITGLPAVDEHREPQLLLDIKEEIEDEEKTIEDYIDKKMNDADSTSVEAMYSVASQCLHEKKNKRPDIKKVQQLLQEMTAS
Outline: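 OCI-LY10 cells treated 4 to 24 hours at 37° C. with 8-dose 1:3 series, top 1 to 10 μM. IRAK4 in lysates quantified by MSD sandwich immunoassay (mouse capture, rabbit detection, SULFO-TAG anti-rabbit). DC50 from three-parameter logistic fit.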

[2] = Rodent pharmacokinetics (rat PK); type: in vivo; details: po, dosed intravenously or orally by gavage, plasma, read-out: F % (bioavailability)
Description: All studies related to handling, care, and treatment of rats in the study were performed according to the guidelines approved by the Institutional Animal Care and Use Committee (IACUC). All rats had access to food and water ad libitum. Rats were dosed intravenously or orally by gavage. Whole blood was collected from the jugular vein immediately prior to dosing and at 5 (intravenously administered drugs only), 15, and 30 min and 1, 2, 4, 8, and 24 h after drug administration. After sampling, whole blood was centrifuged at 4,000×g for 5 min at 4° C. to obtain plasma.
The letter codes for bioavailability (F %) include: A (≥5%) and B (≤5%).

Row | SMILES | DC50 [1] [µM] | bioavailability [2] [%]
1 | Cn1c(=O)n(C2CCC(=O)NC2=O)c2cccc([C@@H]3CCN(C[C@H]4CC[C@H](n5cc6cc(NC(=O)c7cc(C(F)(F)F)cnn7)ccc6n5)CC4)C[C@H]3F)c21 (some centres unmarked) [I-175] | > 0.2 | ≤ 5
2 | Cn1c(=O)n(C2CCC(=O)NC2=O)c2cccc([C@H]3CCN(C[C@H]4CC[C@H](n5cc6cc(NC(=O)c7cncc(C#N)c7)c(C(C)(C)O)cc6n5)CC4)CC3(F)F)c21 (single isomer, unassigned) [I-390] | < 0.01 | ≤ 5
3 | Cc1cc2nn([C@H]3CC[C@H](CN4CC[C@@H](c5cccc6c5n(C)c(=O)n6C5CCC(=O)NC5=O)[C@H](F)C4)CC3)cc2cc1NC(=O)c1cncc(C(F)(F)F)n1 (some centres unmarked) [I-286] | < 0.01 | ≤ 5
4 | Cn1c(=O)n(C2CCC(=O)NC2=O)c2ccc(F)c(N3CC(N4CCN([C@H]5CC[C@H](n6cc(NC(=O)c7cnn8ccc(N9C[C@H]%10C[C@@H]9CO%10)nc78)c(C(F)F)n6)CC5)CC4)C3)c21 (some centres unmarked) [I-117] | < 0.01 | ≥ 5
5 | Cn1c(=O)n(C2CCC(=O)NC2=O)c2cccc([C@@H]3CCN(C[C@H]4CC[C@H](n5cc6cc(NC(=O)c7cncc(C(F)F)n7)ncc6n5)CC4)C[C@H]3F)c21 (some centres unmarked) [I-321] | < 0.01 | ≤ 5
6 | Cn1c(=O)n(C2CCC(=O)NC2=O)c2cccc(C#CCOC[C@H]3CC[C@H](n4cc(NC(=O)c5cnn6ccc(N7C[C@H]8C[C@@H]7CO8)nc56)c(C(F)F)n4)CC3)c21 (some centres unmarked) [I-108] | 0.01 to 0.1 | ≥ 5
7 | Cc1nn(C2CCC(=O)NC2=O)c2cccc(N3CCC4(CCN(C[C@H]5CC[C@H](n6cc7cc(NC(=O)c8cncc(C#N)c8)c(C(C)(C)O)cc7n6)CC5)CC4(F)F)CC3)c12 (some centres unmarked) [I-312] | 0.01 to 0.1 | ≤ 5
8 | Cc1nn(C2CCC(=O)NC2=O)c2cccc([C@@H]3CCN(C[C@H]4CC[C@H](n5cc6cc(NC(=O)c7cncc(C(F)(F)F)n7)ccc6n5)CC4)CC3(F)F)c12 (single isomer, unassigned) [I-371] | 0.01 to 0.1 | ≥ 5
9 | Cn1c(=O)n(C2CCC(=O)NC2=O)c2cccc(N3CCC(F)(CN4CCC(c5nc6cc(C(C)(C)O)c(NC(=O)c7cccc(C(F)(F)F)n7)cc6o5)CC4)CC3)c21 (centres unmarked) [I-197] | > 0.2 | ≤ 5
10 | Cn1c(=O)n(C2CCC(=O)NC2=O)c2cccc([C@@H]3CCN(C[C@H]4CC[C@H](n5cc6cc(NC(=O)c7cncc(C#N)c7)ccc6n5)CC4)C[C@H]3F)c21 (some centres unmarked) [I-129] | < 0.01 | ≤ 5
11 | Cn1c(=O)n(C2CCC(=O)NC2=O)c2cccc([C@@H]3CCN(C[C@H]4CC[C@H](n5cc6cc(NC(=O)c7cncc(C(F)F)n7)ccc6n5)CC4)CC3(F)F)c21 (some centres unmarked) [I-384] | < 0.01 | ≤ 5
12 | Cn1c(=O)n(C2CCC(=O)NC2=O)c2cccc([C@@H]3CCN(C[C@H]4CC[C@H](n5cc6cc(NC(=O)c7cncc(C(F)(F)F)n7)cc(F)c6n5)CC4)C[C@H]3F)c21 (some centres unmarked) [I-356] | < 0.01 | ≤ 5
13 | Cn1c(=O)n(C2CCC(=O)NC2=O)c2cccc([C@@H]3CCN(C[C@H]4CC[C@H](n5cc6cc(NC(=O)c7cc(C(F)(F)F)ncn7)ccc6n5)CC4)C[C@H]3F)c21 (some centres unmarked) [I-196] | > 0.2 | ≤ 5
14 | Cn1c(=O)n(C2CCC(=O)NC2=O)c2cccc([C@H]3CCN(C[C@H]4CC[C@H](n5cc6cc(NC(=O)c7cncc(C(F)(F)F)n7)ncc6n5)CC4)CC3(F)F)c21 (single isomer, unassigned) [I-205] | < 0.01 | ≤ 5
15 | COc1cc2nn([C@H]3CC[C@H](CN4CCC5(CCN(c6cccc7c6n(C)c(=O)n7C6CCC(=O)NC6=O)CC5)C(F)(F)C4)CC3)cc2cc1NC(=O)c1cncc(C)c1 (some centres unmarked) [I-257] | < 0.01 | ≤ 5
16 | CN(C[C@H]1CC[C@H](c2nc3cc(C(C)(C)O)c(NC(=O)c4cccc(C(F)(F)F)n4)cc3s2)CC1)[C@@H]1CCN(c2cccc3c2n(C)c(=O)n3C2CCC(=O)NC2=O)C[C@H]1F (single isomer, unassigned) [I-238] | < 0.01 | ≥ 5
17 | Cc1cncc(C(=O)Nc2cc3cn([C@H]4CC[C@H](CN5CCC6(CCN(c7cccc8c7n(C)c(=O)n8C7CCC(=O)NC7=O)CC6)C(F)(F)C5)CC4)nc3cc2C(C)(C)O)c1 (some centres unmarked) [I-361] | < 0.01 | ≤ 5
18 | Cn1c(=O)n(C2CCC(=O)NC2=O)c2cccc(N3CCC4(CCN(C[C@H]5CC[C@H](n6cc7cc(NC(=O)c8cncc(F)c8)c(C(C)(C)O)cc7n6)CC5)CC4(F)F)CC3)c21 (some centres unmarked) [I-386] | < 0.01 | ≥ 5

Row | SMILES | DC50 [1] [µM] | bioavailability [2] [%]
19 | COc1ccc2c(c1N1CC3(CCN(C[C@H]4CC[C@H](c5nc6cc(C(C)(C)O)c(NC(=O)c7cncc(C#N)c7)cc6o5)CC4)CC3(F)F)C1)n(C)c(=O)n2C1CCC(=O)NC1=O (some centres unmarked) [I-413] | > 0.2 | ≤ 5
20 | Cn1c(=O)n(C2CCC(=O)NC2=O)c2cccc(N3CCC4(CCN(C[C@H]5CC[C@H](n6cc7cc(NC(=O)c8cncc(C(F)(F)F)c8)c(C(C)(C)O)cc7n6)CC5)CC4(F)F)CC3)c21 (some centres unmarked) [I-365] | < 0.01 | ≥ 5
21 | Cn1c(=O)n(C2CCC(=O)NC2=O)c2cccc([C@@H]3CCN(C[C@H]4CC[C@H](n5cc6cc(NC(=O)c7cncc(C(F)F)n7)ccc6n5)CC4)C[C@H]3F)c21 (some centres unmarked) [I-323] | < 0.01 | ≤ 5
22 | Cn1c(=O)n(C2CCC(=O)NC2=O)c2cccc([C@H]3C[C@H](COC4CCN(C[C@H]5CC[C@H](n6cc(NC(=O)c7cnn8ccc(N9C[C@H]%10C[C@@H]9CO%10)nc78)c(C(F)F)n6)CC5)CC4)C3)c21 (some centres unmarked) [I-267] |  | ≤ 5
23 | Cn1c(=O)n(C2CCC(=O)NC2=O)c2cccc(N3CC[C@H](CN4CCN(C[C@H]5CC[C@H](n6cc(NC(=O)c7cnn8ccc(N9C[C@H]%10C[C@@H]9CO%10)nc78)c(C(F)F)n6)CC5)CC4)C3)c21 (some centres unmarked) [I-114] |  | ≤ 5
24 | COc1cn2nc([C@H]3CC[C@H](CN(C)[C@H]4CCN(c5cccc6c5n(C)c(=O)n6C5CCC(=O)NC5=O)C[C@H]4F)CC3)cc2cc1NC(=O)c1cncc(C(F)(F)F)n1 (single isomer, unassigned) [I-219] |  | ≤ 5
25 | COc1cn2nc([C@H]3CC[C@H](CN4CC[C@@H](c5cccc6c5n(C)c(=O)n6C5CCC(=O)NC5=O)[C@H](F)C4)CC3)cc2cc1NC(=O)c1cncc(C(F)(F)F)n1 (some centres unmarked) [I-166] |  | ≤ 5
26 | Cn1nc(C2CCC(=O)NC2=O)c2cccc(N3CCC4(CCN(C[C@H]5CC[C@H](n6cc7cc(NC(=O)c8cncc(C#N)c8)c(C(C)(C)O)cc7n6)CC5)CC4(F)F)CC3)c21 (some centres unmarked) [I-220] |  | ≤ 5
27 | CN(C[C@H]1CC[C@H](n2cc(NC(=O)c3cnn4ccc(N5CCCC5)nc34)c(C(F)F)n2)CC1)[C@H]1CCN(c2cccc3c2n(C)c(=O)n3C2CCC(=O)NC2=O)C[C@H]1F (single isomer, unassigned) [I-21] |  | ≤ 5
28 | CN(C[C@H]1CC[C@H](c2nc3cc(C(C)(C)O)c(NC(=O)c4cccc(C(F)(F)F)c4)cc3s2)CC1)[C@@H]1CCN(c2cccc3c2n(C)c(=O)n3C2CCC(=O)NC2=O)C[C@H]1F (single isomer, unassigned) [I-176] |  | ≥ 5
29 | CN(C[C@H]1CC[C@H](c2nc3cc(C(C)(C)O)c(NC(=O)c4cncc(C(F)(F)F)c4)cc3s2)CC1)[C@H]1CCN(c2cccc3c2n(C)c(=O)n3C2CCC(=O)NC2=O)C[C@@H]1F (single isomer, unassigned) [I-160] |  | ≥ 5
30 | CN(C[C@H]1CC[C@H](c2nc3cc(C(C)(C)O)c(NC(=O)c4cccc(C(F)(F)F)c4)cc3s2)CC1)[C@H]1CCN(c2cccc3c2n(C)c(=O)n3C2CCC(=O)NC2=O)C[C@@H]1F (single isomer, unassigned) [I-177] |  | ≥ 5
31 | Cn1c(=O)n(C2CCC(=O)NC2=O)c2cccc(N3CC4(CCN(C[C@H]5CC[C@H](n6cc7cc(NC(=O)c8cncc(C(F)(F)F)n8)ncc7n6)CC5)CC4(F)F)C3)c21 (some centres unmarked) [I-221] |  | ≤ 5
32 | CN(C[C@H]1CC[C@H](c2nc3cc(C(C)(C)O)c(NC(=O)c4cccc(C(F)(F)F)n4)cc3o2)CC1)[C@H]1CCN(c2cccc3c2n(C)c(=O)n3C2CCC(=O)NC2=O)C[C@H]1F (some centres unmarked) [I-178] |  | ≥ 5
33 | CN(C[C@H]1CC[C@H](n2cc3cc(NC(=O)c4cccc(C(F)(F)F)n4)c(C#N)cc3n2)CC1)[C@H]1CCN(c2cccc3c2n(C)c(=O)n3C2CCC(=O)NC2=O)C[C@@H]1F (some centres unmarked) [I-9] | < 0.01 | 
34 | COc1ccc2c(c1N1CC3(CCN(C[C@H]4CC[C@H](n5cc6cc(NC(=O)c7cncc(C#N)c7)c(C(C)(C)O)cc6n5)CC4)CC3(F)F)C1)n(C)c(=O)n2[C@H]1CCC(=O)NC1=O (single isomer, unassigned) [I-234] | < 0.01 | 
35 | Cn1c(=O)n(C2CCC(=O)NC2=O)c2ccc(F)c(N3CCC4(CCN(C[C@H]5CC[C@H](n6cc7cc(NC(=O)c8cncc(C(F)(F)F)n8)ccc7n6)CC5)CC4(F)F)CC3)c21 (some centres unmarked) [I-399] | 0.01 to 0.1 | 
